From the METLIN SMRT retention time set (Domingo-Almenara et al. 2019)

Test: gradient 5% acetonitrile 3 min, to 50% in 2 min, to 85% in 15 min, held 3 min, 100 µL/min
Details: column: Zorbax Extend-C18 2.1 x 50 mm; eluents: water / acetonitrile, 0.1% formic acid
Procedure, shortened: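 The mobile phases were water and acetonitrile, each with 0.1% formic acid, pumped at 100 μL/min through a Zorbax Extend-C18 column (2.1 × 50 mm, 1.8 μm). Pure standards were injected as mixtures of ~100 molecules and detected by a quadrupole time-of-flight mass spectrometer in positive and negative ionization mode. Retention time came from computationally picked adduct peaks, each inspected by hand.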

| SMILES | RP-LC retention time [s] |
| --- | --- |
| CC(C)n1nc(-c2ccc3oc(N)nc3c2)c2c(N)ncnc21 | 628 |
| Cc1[nH]c(C(=O)N2CCCC(C(=O)NCCN3CCN(C)CC3)C2)c(C)c1C(=O)OC(C)C (stereo unspecified) | 598 |
| CC(C(=O)N1CCN(c2cc(-c3ccccc3)[nH]n2)CC1)c1ccccc1 (stereo unspecified) | 824 |
| Cn1cc2c(n1)c(=O)n(Cc1ccc(F)cc1)c1nn(Cc3ccccc3F)c(=O)n21 | 1020 |
| O=C(NCc1ccccn1)c1c(-c2ccccc2)nnc2ccccc12 | 609 |
| CN(C)S(=O)(=O)c1ccc2c(c1)N(CC(=O)Nc1cccc(F)c1)C(=O)C1CCCCN21 (stereo unspecified) | 928 |
| Cc1sc2cc(C(=O)N3CCN(c4ccccc4)CC3)[nH]c2c1CN1CCOCC1 | 710 |
| CCOC(=O)c1nn(-c2cc(C(=O)OC)cc(C(=O)OC)c2)cc1O | 769 |
| CCOc1ccc(-c2nc(Cc3noc(-c4ccccn4)n3)c(C)o2)cc1 | 966 |
| CCOc1cccc(-c2noc(Cn3c(=O)n(-c4cccc(F)c4)c(=O)c4sccc43)n2)c1 | 1040 |
| O=C(/C=C/c1ccccc1)NC(NC(=S)Nc1cccc2cccnc12)C(Cl)(Cl)Cl (stereo unspecified) | 1020 |
| CC(C)c1nc(-c2ccc(C(=O)N3CCN(c4nc5cccnc5o4)CC3)cc2)no1 | 828 |
| O=C(CCCSc1ccc(NC(=O)c2cccs2)nn1)NCc1ccco1 | 714 |
| Cc1nnc2n1-c1sccc1C(c1ccccc1)=NC2 | 712 |
| Cc1csc(-c2cc(S(=O)(=O)N3CCCCC3)cn2CC(=O)N2CCCC2)n1 | 890 |
| CN1CCN(CCNC(=O)c2nn(-c3ccc(Cl)cc3)c3c(=O)n(C)cnc23)CC1 | 602 |
| Cn1c(=O)c2c(Nc3ccc(C(F)(F)F)cc3)ccnc2n(C)c1=O | 1010 |
| CCc1ccccc1NC(=O)CN1C(=O)NC2(CCCCC2)C1=O | 761 |
| Nc1cc(C2CCN(C(=O)Nc3ccc(Br)cc3)CC2)no1 | 732 |
| O=C(NCCCN1CCN(c2ccccc2F)CC1)c1nnc(-c2ccccc2)o1 | 664 |

| SMILES | RP-LC retention time [s] |
| --- | --- |
| Cc1ccc(NC(=O)N2CCOCCNC(=O)[C@H]3CCCC[C@H]32)cc1C | 829 |
| CCOc1ccc(-c2noc(CN3C(=O)COc4ccc(C(C)(C)C)cc43)n2)cc1OC | 1230 |
| CCn1c(CCC(=O)NCc2ccc(F)c(Cl)c2)nc2c(C)cccc2c1=O | 916 |
| O=C(CSc1ccc(N2CCCC(C(=O)NC3CC3)C2)nn1)Nc1cc(F)ccc1F (stereo unspecified) | 617 |
| O=C([C@@H]1C[C@H](Oc2cccnc2)CN1C(=O)CCC1CCCC1)N1CCCC1 | 640 |
| COc1ccccc1-c1cc2nc(C)cc(NCC3CCCO3)n2n1 (stereo unspecified) | 592 |
| Cc1nc(N2CCN(c3ncccn3)CC2)nc2c1C(=O)CC(c1ccc(F)cc1)C2 (stereo unspecified) | 1190 |
| Cc1cc(C)c(C(=O)N2CCC(CC(=O)NCc3cccc(Br)c3)CC2)[nH]1 | 820 |
| O=c1c2sccc2n(Cc2nc(-c3ccccc3)no2)c(=O)n1-c1ccc(F)cc1 | 969 |
| CCn1cc(C(=O)N2CCC(c3nnc(-c4ccco4)o3)CC2)c(=O)c2ccc(C)nc21 | 654 |
| COC(=O)C1=CN(c2ccccc2)c2ccc(F)cc2S1(=O)=O | 817 |
| Cc1ccc2c(C(=O)O)cc(NC(=O)C3CCC3)cc2n1 | 574 |
| COc1ccc2c(c1)C=C(C(=O)Nc1ccccc1F)C=CO2 | 1020 |
| CCOC(=O)N1CCC(NS(=O)(=O)C2CC2)CC1 | 632 |
| COC(=O)c1ccc2c(=O)n(-c3ccc4c(c3)OCO4)c(N3CCC(C)CC3)nc2c1 | 1150 |
| COc1cc2c(cc1OC)CN(C(=O)CSc1ncnc3sc(C)c(C)c13)CC2 | 851 |
| Cn1cccc1Cc1nnc(SCC(=O)NO)n1Cc1ccccc1 | 621 |
| O=C(Nc1ncc([N+](=O)[O-])s1)c1ccc([N+](=O)[O-])c(Cl)c1 | 946 |
| CC1=C(c2ccc(C)c(C)c2)S(=O)(=O)N=C1N1CCC(C(=O)NCCN2CCCC2)CC1 | 661 |
| Cc1ccc(C)c2sc(NCc3ccccn3)nc12 | 641 |

Next, values leading:

| RP-LC retention time [s] | SMILES |
| --- | --- |
| 1010 | CCOc1ccc(NC(=O)C2CCCN(c3ccc(=O)n(-c4ccc(C)c(Cl)c4)n3)C2)cc1 (stereo unspecified) |
| 794 | Cc1ccnc(NC(=O)C2CCN(S(=O)(=O)c3ccc(-c4noc(C5CC5)n4)cc3)CC2)c1 |
| 759 | Cc1oc(C2CCN(C(=O)Nc3ccc(Br)cc3)CC2)nc1C(=O)N(C)C |
| 832 | Cc1cccc(NC(=O)Cn2c(=O)n(-c3ccccc3)c3ncccc32)c1C |
| 695 | CCC1CN2C=Nc3oc(C)c(C(=O)Nc4cccc(Cl)c4)c3C2=N1 (stereo unspecified) |
| 896 | CC(=O)Nc1cccc2c(C(=O)NC(C)c3ccc(C)cc3C)ccnc12 (stereo unspecified) |
| 618 | Cc1nnc(-c2ccc3ccn(CC(=O)Nc4ncccc4C)c3c2)o1 |
| 873 | CSc1ccc(NC(=O)NC2CCN(c3ccc(F)c(C)c3)C2=O)cc1 (stereo unspecified) |
| 1190 | Cn1c(=O)n(C)c2cc(CNc3ccc(O)cc3)ccc21 |
| 963 | CCOc1ccc(C(=O)NCc2noc(-c3cccc(Cl)c3)n2)cc1 |
| 922 | COc1cccc(CC(=O)Nc2nnc(SCc3nnc(-c4ccccc4C)o3)s2)c1 |
| 929 | CCOc1ccc(NC(=O)Cn2nc(N3CCSCC3)c3ccccc3c2=O)cc1 |
| 756 | COc1cccc(C(=O)NC2CCN(c3ccc(F)cc3)C2=O)c1 (stereo unspecified) |
| 1290 | COc1cccc2cc(C(=O)Nc3nc(-c4ccc(Cl)cc4)cs3)c(=O)oc12 |
| 718 | COCCCNC(=O)CCc1nnc2ccc(-c3ccc(C)c(C)c3)nn12 |
| 910 | COC(=O)c1cccc(C(=O)Nc2ccc(C)c(C)c2)n1 |
| 563 | CC(=O)Nc1ccc(-c2nnc3n2CCCC3)cc1 |
| 1040 | CCc1nc2cc(-c3noc(-c4cccc5[nH]ccc45)n3)ccc2o1 |
| 640 | O=C(Nc1cccc(-c2nnc3n2CCCC3)c1)c1ccoc1 |
| 641 | CCc1ccc(CNC(=S)Nc2ccc3nc(N4CCN(C)CC4)cc(C)c3c2)cc1 |
| 734 | Cc1ccn2cc(-c3ccc(NC(=O)c4cccc(I)c4)cc3)nc2n1 |
| 814 | CCCCc1ccc(NC(=O)NC2CCN(c3cc(N4CCCC4)cnn3)C2)cc1 (stereo unspecified) |
| 1010 | Cn1c(=O)c(-c2c(Cl)cccc2Cl)cc2cnc(Nc3ccc(N4CCOCC4)cc3)nc21 |
| 833 | Cc1nc(-c2noc(-c3ccncc3)n2)cn1CC(=O)Nc1cccc(F)c1 |
| 650 | CC(C)C(NC(=O)c1ccco1)c1nc(-c2ccc3c(c2)ncn3C)no1 (stereo unspecified) |
| 933 | Cc1ccc2oc(C(=O)Nc3ccc(-n4cnnn4)cc3)c(C)c2c1 |
